Activity calls are given as the source filed them. The rule behind the calls is not given here.
Legend:
[1] = molecular target: CDK9/cyclin T1 (Homo sapiens, UniProt P50750); assay: Inhibition of CDK9/Cyclin-T1 (unknown origin) preincubated for 10 mins followed by substrate addition and measured after 60 mins in presence of ATP by ADP-Glo reagent based assay; assay type: protein-complex assay
[2] = molecular target: CDK2/Cyclin A2 (Homo sapiens, UniProt P24941); assay: Inhibition of CDK2/Cyclin A2 (unknown origin) preincubated for 10 mins followed by substrate addition and measured after 60 mins in presence of ATP by ADP-Glo reagent based assay; assay type: protein-complex assay
[3] = tested on: HCC827; assay: Antiproliferative activity against human HCC827 cells incubated for 72 hrs by MTT assay; assay type: functional, cell-based; settings: HCC827, 72 h
[4] = tested on: NCI-H1975; assay: Antiproliferative activity against human NCI-H1975 cells incubated for 72 hrs by MTT assay; assay type: functional, cell-based; settings: NCI-H1975, 72 h
[5] = Downregulation of Mcl-1 in human NCI-H1975 cells at 500 nM relative to control; assay type: functional
[6] = molecular target: CDK9/cyclin T1 (Homo sapiens) (UniProt O60563+P50750); assay: Inhibition of CDK9/Cyclin-T1 (unknown origin) at 20 nM preincubated for 10 mins followed by substrate addition and measured after 60 mins in presence of ATP by ADP-Glo reagent based assay relative to control; assay type: protein-complex assay; settings: time 70.0 min
[7] = molecular target: CDK2/Cyclin A2 (Homo sapiens) (UniProt P24941+P20248); assay: Inhibition of CDK2/Cyclin A2 (unknown origin) at 100 nM preincubated for 10 mins followed by substrate addition and measured after 60 mins in presence of ATP by ADP-Glo reagent based assay relative to control; assay type: protein-complex assay; settings: time 70.0 min
[8] = molecular target: Receptor-type tyrosine-protein kinase FLT3 (Homo sapiens) (UniProt P36888); assay: Inhibition of FLT3 (unknown origin) at 100 nM preincubated for 10 mins followed by substrate addition and measured after 60 mins in presence of ATP by ADP-Glo reagent based assay relative to control; settings: time 70.0 min
Sequence of Receptor-type tyrosine-protein kinase FLT3 (Homo sapiens) (P36888 whole entry): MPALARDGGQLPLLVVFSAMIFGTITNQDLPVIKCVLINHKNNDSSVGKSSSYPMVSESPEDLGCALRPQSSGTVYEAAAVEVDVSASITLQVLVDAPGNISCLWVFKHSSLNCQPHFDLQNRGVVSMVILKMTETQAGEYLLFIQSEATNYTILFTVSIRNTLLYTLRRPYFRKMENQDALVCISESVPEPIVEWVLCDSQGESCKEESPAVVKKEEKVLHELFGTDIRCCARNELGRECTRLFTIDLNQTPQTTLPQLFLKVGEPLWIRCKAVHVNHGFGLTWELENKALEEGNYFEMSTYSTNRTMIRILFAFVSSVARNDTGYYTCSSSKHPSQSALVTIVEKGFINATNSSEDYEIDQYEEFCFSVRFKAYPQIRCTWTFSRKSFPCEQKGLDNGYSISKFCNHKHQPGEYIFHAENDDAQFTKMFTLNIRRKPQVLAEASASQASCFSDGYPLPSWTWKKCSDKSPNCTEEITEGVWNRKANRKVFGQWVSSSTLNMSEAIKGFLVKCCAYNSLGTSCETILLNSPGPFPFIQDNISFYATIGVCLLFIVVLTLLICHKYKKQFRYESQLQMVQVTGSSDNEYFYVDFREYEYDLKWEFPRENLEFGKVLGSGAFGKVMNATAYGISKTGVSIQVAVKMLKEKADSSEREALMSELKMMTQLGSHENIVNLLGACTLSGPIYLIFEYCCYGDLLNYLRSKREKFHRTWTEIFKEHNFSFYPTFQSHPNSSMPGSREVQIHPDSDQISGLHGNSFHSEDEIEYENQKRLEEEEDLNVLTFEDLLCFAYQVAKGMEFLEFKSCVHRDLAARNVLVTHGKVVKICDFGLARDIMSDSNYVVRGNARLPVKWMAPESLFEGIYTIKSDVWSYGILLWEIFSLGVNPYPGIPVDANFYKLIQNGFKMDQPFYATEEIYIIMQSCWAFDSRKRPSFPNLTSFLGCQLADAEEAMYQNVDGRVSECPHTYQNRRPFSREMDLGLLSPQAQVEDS

[9] = molecular target: Tyrosine-protein kinase JAK2 (Homo sapiens) (UniProt O60674); assay: Inhibition of JAK2 (unknown origin) at 100 nM preincubated for 10 mins followed by substrate addition and measured after 60 mins in presence of ATP by ADP-Glo reagent based assay relative to control; settings: time 70.0 min
Sequence of Tyrosine-protein kinase JAK2 (Homo sapiens) (O60674 whole entry): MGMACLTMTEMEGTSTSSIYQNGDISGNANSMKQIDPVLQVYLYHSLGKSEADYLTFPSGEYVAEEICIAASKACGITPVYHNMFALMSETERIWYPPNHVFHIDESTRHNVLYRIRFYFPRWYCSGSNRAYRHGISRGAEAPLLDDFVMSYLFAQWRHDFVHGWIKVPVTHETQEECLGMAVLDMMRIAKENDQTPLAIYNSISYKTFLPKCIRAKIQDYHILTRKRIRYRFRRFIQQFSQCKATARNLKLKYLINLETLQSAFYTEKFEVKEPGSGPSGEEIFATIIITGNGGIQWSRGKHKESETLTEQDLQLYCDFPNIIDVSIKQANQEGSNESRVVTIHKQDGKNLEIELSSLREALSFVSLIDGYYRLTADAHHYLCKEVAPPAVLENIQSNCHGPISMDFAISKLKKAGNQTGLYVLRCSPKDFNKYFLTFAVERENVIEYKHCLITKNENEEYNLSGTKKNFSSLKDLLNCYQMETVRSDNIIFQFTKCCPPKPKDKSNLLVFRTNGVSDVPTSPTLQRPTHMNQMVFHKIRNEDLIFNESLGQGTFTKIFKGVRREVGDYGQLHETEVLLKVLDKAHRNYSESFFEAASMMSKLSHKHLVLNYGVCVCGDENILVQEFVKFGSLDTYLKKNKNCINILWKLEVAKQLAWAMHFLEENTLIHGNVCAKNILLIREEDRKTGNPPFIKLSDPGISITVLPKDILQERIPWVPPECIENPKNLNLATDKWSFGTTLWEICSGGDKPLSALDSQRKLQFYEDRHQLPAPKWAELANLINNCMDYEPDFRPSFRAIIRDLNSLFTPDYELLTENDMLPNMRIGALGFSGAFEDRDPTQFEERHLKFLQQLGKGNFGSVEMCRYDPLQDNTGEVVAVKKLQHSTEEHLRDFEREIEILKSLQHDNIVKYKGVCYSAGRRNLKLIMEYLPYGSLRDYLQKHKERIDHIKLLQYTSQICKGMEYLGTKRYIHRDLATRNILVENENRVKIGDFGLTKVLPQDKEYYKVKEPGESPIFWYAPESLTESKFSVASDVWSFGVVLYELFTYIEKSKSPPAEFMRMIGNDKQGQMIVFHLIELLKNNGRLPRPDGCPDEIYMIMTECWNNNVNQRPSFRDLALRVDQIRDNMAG

[10] = Antiproliferative activity against human Osimertinib-resistant NCI-H1975 cell incubated for 72 hrs by MTT assay; assay type: functional, cell-based; settings: NCI-H1975, 72 h
[11] = tested on: HCC827; assay: Downregulation of Mcl-1 level in human HCC827 cells measured after 8 hrs by Western blotting analysis; assay type: functional, cell-based; settings: dose <= 0.5 µM
[12] = tested on: NCI-H1975; assay: Downregulation of Mcl-1 level in human NCI-H1975 cells measured after 8 hrs by Western blotting analysis; assay type: functional, cell-based; settings: dose <= 0.5 µM
[13] = tested on: Osimertinib-resistant HCC827AR cell; assay: Downregulation of Mcl-1 level in human Osimertinib-resistant HCC827 cell at upto 0.5 uM measured after 8 hrs by Western blotting analysis; assay type: functional, cell-based
[14] = tested on: NCI-H1975; assay: Downregulation of Mcl-1 level in human Osimertinib-resistant NCI-H1975 cell at upto 0.5 uM measured after 8 hrs by Western blotting analysis; assay type: functional, cell-based
[15] = Antiproliferative activity against human Osimertinib-resistant NCI-H1975 cell assessed as cell growth inhibition at 125 nM incubated for 72 hrs by MTT assay relative to control; assay type: functional; parameters: scale not given: the % may be the effect or the level left
[16] = Induction of apoptosis in human Osimertinib-resistant NCI-H1975 cell assessed as viable cells at 125 nM measured after 16 hrs by Annexin V-FITC and PI staining based analysis (reference value: 94.9%); assay type: functional; settings: read-out: Activity
[17] = Induction of apoptosis in human Osimertinib-resistant NCI-H1975 cell assessed as early apoptotic cells at 125 nM measured after 16 hrs by Annexin V-FITC and PI staining based analysis (Rvb =1.78%); assay type: functional
[18] = Induction of apoptosis in human Osimertinib-resistant NCI-H1975 cell assessed as late apoptotic cells at 125 nM measured after 16 hrs by Annexin V-FITC and PI staining based analysis (Rvb =2.84%); assay type: functional
[19] = Induction of apoptosis in human Osimertinib-resistant NCI-H1975 cell assessed as necrotic cells at 125 nM measured after 16 hrs by Annexin V-FITC and PI staining based analysis (reference value: 0.50%); assay type: functional
[20] = tested on: NCI-H1975; assay: Downregulation of Mcl-1 level in human Osimertinib-resistant NCI-H1975 cell at 2 uM measured after 8 hrs by Western blotting analysis; assay type: functional, cell-based
[21] = Induction of apoptosis in human Osimertinib-resistant NCI-H1975 cell assessed as viable cells at 500 nM measured after 16 hrs by Annexin V-FITC and PI staining based analysis (reference value: 94.9%); assay type: functional; settings: read-out: Activity
[22] = Induction of apoptosis in human Osimertinib-resistant NCI-H1975 cell assessed as viable cells at 2000 nM measured after 16 hrs by Annexin V-FITC and PI staining based analysis (reference value: 94.9%); assay type: functional; settings: read-out: Activity
[23] = Induction of apoptosis in human Osimertinib-resistant NCI-H1975 cell assessed as early apoptotic cells at 500 nM measured after 16 hrs by Annexin V-FITC and PI staining based analysis (reference value: 1.78%); assay type: functional
[24] = Induction of apoptosis in human Osimertinib-resistant NCI-H1975 cell assessed as early apoptotic cells at 2000 nM measured after 16 hrs by Annexin V-FITC and PI staining based analysis (reference value: 1.78%); assay type: functional
[25] = Induction of apoptosis in human Osimertinib-resistant NCI-H1975 cell assessed as late apoptotic cells at 500 nM measured after 16 hrs by Annexin V-FITC and PI staining based analysis (reference value: 2.84%); assay type: functional
[26] = Induction of apoptosis in human Osimertinib-resistant NCI-H1975 cell assessed as late apoptotic cells at 2000 nM measured after 16 hrs by Annexin V-FITC and PI staining based analysis (reference value: 2.84%); assay type: functional
[27] = Induction of apoptosis in human Osimertinib-resistant NCI-H1975 cell assessed as necrotic cells at 500 nM measured after 16 hrs by Annexin V-FITC and PI staining based analysis (reference value: 0.50%); assay type: functional
[28] = Induction of apoptosis in human Osimertinib-resistant NCI-H1975 cell assessed as necrotic cells at 2000 nM measured after 16 hrs by Annexin V-FITC and PI staining based analysis (reference value: 0.50%); assay type: functional
[29] = cells; settings: Homo sapiens, Osimertinib-resistant HCC827AR cell, 72 h

Sequence of CDK9/cyclin T1 (O60563 whole entry): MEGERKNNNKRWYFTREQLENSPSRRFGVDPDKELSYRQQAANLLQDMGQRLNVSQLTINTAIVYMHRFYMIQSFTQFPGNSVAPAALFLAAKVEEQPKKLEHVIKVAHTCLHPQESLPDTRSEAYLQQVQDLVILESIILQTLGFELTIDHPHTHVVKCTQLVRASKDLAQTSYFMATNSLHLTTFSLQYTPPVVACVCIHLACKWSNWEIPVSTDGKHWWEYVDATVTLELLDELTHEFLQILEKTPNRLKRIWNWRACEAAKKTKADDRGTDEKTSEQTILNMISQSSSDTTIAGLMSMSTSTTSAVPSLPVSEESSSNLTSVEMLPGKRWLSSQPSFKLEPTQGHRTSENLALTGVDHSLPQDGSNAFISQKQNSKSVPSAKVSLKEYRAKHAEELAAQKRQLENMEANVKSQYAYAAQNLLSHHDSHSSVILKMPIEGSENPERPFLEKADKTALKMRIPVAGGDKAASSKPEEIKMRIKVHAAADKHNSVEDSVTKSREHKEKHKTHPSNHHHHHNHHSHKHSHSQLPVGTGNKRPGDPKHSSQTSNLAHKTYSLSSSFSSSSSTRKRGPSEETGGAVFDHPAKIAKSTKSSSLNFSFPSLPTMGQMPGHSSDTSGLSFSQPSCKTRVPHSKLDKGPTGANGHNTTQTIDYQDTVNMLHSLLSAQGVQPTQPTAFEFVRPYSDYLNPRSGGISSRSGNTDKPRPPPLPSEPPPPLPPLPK
Sequence of CDK9/cyclin T1 (P50750 whole entry): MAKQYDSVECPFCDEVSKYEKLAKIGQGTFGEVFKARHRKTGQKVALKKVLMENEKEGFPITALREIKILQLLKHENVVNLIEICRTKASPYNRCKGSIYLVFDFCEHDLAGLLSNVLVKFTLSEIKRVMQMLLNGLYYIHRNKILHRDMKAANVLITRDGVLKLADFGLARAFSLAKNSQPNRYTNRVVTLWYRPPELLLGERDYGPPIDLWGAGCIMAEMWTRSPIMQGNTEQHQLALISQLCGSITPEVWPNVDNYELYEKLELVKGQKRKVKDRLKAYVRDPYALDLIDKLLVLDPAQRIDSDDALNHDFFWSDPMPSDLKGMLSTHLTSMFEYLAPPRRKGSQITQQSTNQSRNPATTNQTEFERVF

## O=C(NC1CCC(N2CCOCC2)CC1)c1ccc2cc1OCCCCCCOc1cc(ccc1F)-c1nc(ncc1F)N2 (stereo unspecified)
[1]
  IC50: 2 nM
[2]
  IC50: 715 nM
[3]
  IC50: 421 nM
[4]
  IC50: 814 nM
[5]
  Activity: 64.6%

## O=C(c1ccc2cc1OCCCCOc1cc(ccc1F)-c1nc(ncc1F)N2)N1CCNCC1
[3]
  IC50: 2470 nM
[4]
  IC50: 1060 nM
[6]
  inhibition: 45.7%
[7]
  inhibition: 32.9%

## O=C(NCC1CCNCC1)c1ccc2cc1OCCCCOc1cc(ccc1F)-c1nc(ncc1F)N2
[1]
  IC50: 2.1 nM
[2]
  IC50: 15 nM
[3]
  IC50: 343 nM
[4]
  IC50: 336 nM
[5]
  Activity: 1.6%

## O=C(NCCN1CCOCC1)c1ccc2cc1COCCCCOCc1cc(ccc1F)-c1nc(ncc1F)N2
[1]
  IC50: 7.7 nM
[2]
  IC50: 140 nM
[4]
  IC50: 613 nM

## CN1CCC(NC(=O)c2ccc3cc2OCCCCCCOc2cc(ccc2F)-c2nc(ncc2F)N3)CC1
[1]
  IC50: 3.2 nM
[2]
  IC50: 30.7 nM
[4]
  IC50: 135 nM

## O=C(c1ccc2cc1OCCCCOc1cc(ccc1F)-c1nc(ncc1F)N2)N1CCCNCC1
[3]
  IC50: 1940 nM
[4]
  IC50: 1180 nM
[5]
  Activity: -27%
[6]
  inhibition: 27%
[7]
  inhibition: 21.2%

## CN(C)CCNC(=O)c1ccc2cc1OCCCCOc1cc(ccc1F)-c1nc(ncc1F)N2
[1]
  IC50: 1.1 nM
[2]
  IC50: 3.2 nM
[3]
  IC50: 31 nM
[4]
  IC50: 26 nM
[5]
  Activity: 82.6%

## COc1cc(F)ccc1-c1ncnc(Nc2ccc(C(=O)NCCN(C)C)cc2)n1
[1]
  IC50: 3.1 nM
[2]
  IC50: 24 nM
[3]
  IC50: 340000 nM
[4]
  IC50: 254000 nM

## O=C(NCCN1CCOCC1)c1ccc2cc1OCCCCOc1cc(ccc1F)-c1nc(ncc1F)N2
[8]
  inhibition: 77.3%
[9]
  inhibition: 79.7%
[1]
  IC50: 0.9 nM
[2]
  IC50: 34.2 nM
[3]
  IC50: 182 nM
[4]
  IC50: 21 nM
[5]
  Activity: 95.6%

## O=C(NC1CCN(C2CCOCC2)CC1)c1ccc2cc1OCCCCCCOc1cc(ccc1F)-c1nc(ncc1F)N2
[1]
  IC50: 2.6 nM
[2]
  IC50: 117 nM
[3]
  IC50: 255 nM
[4]
  IC50: 373 nM
[5]
  Activity: 54.4%

## O=C(NCCN1CCOCC1)c1ccc2cc1OCCCCCOc1cc(ccc1F)-c1nc(ncc1F)N2
[8]
  inhibition: 62.8%
[9]
  inhibition: 56.5%
[1]
  IC50: 1.1 nM
[2]
  IC50: 66.2 nM
[3]
  IC50: 267 nM
[4]
  IC50: 115 nM
[5]
  Activity: 73.4%

## O=C(NC1CCOCC1)c1ccc2cc1OCCCCOc1cc(ccc1F)-c1nc(ncc1F)N2
[8]
  inhibition: 60.9%
[9]
  inhibition: 73.2%
[1]
  IC50: 2.8 nM
[2]
  IC50: 95.1 nM
[3]
  IC50: 181 nM
[4]
  IC50: 283 nM
[5]
  Activity: 99%

## O=C(c1ccc2cc1OCCCCOc1cc(ccc1F)-c1nc(ncc1F)N2)N1CCC(N2CCOCC2)CC1
[3]
  IC50: 4780 nM
[4]
  IC50: 2680 nM
[5]
  Activity: -34%
[6]
  inhibition: 20.9%
[7]
  inhibition: 9.1%

## C=CC(=O)Nc1cc(Nc2nccc(-c3cn(C)c4ccccc34)n2)c(OC)cc1N(C)CCN(C)C [OSIMERTINIB]
[3]
  IC50: 57 nM
[4]
  IC50: […]
[10]
  IC50: 4690 nM
[11]
  Activity: Dose-Dependent Effect
[12]
  Activity: Dose-Dependent Effect
[13]
  Activity: inactive
[14]
  Activity: inactive
[15]
  Activity: 10%
[16]
  viability at 0.125 µM: 92.4%
[17]
  Activity: 2.52%
[18]
  Activity: 1.8%
[19]
  Activity: 3.25%

## O=C(c1ccc2cc1OCCCCOc1cc(ccc1F)-c1nc(ncc1F)N2)N1CCC(N2CCOCC2)C1 (stereo unspecified)
[3]
  IC50: 5170 nM
[4]
  IC50: 1870 nM
[6]
  inhibition: 27.6%
[7]
  inhibition: 11.7%

## O=C(NCCN1CCOCC1)c1ccc2cc1OCCOCCOc1cc(ccc1F)-c1nc(ncc1F)N2
[8]
  inhibition: 68.7%
[9]
  inhibition: 71.4%
[1]
  IC50: 2.1 nM
[2]
  IC50: 10 nM
[3]
  IC50: 52 nM
[4]
  IC50: 54 nM

## COc1cc(F)ccc1-c1ncnc(Nc2cccc(C[S@](C)(=N)=O)c2)n1 [ATUVECICLIB]
[10]
  IC50: 1080 nM
[20]
  Activity: Active
[21]
  viability at 0.5 µM: 91.3%
[22]
  viability at 2 µM: 91.9%
[23]
  Activity: 3.16%
[24]
  Activity: 2.58%
[25]
  Activity: 4.49%
[26]
  Activity: 3.66%
[27]
  Activity: 1.06%
[28]
  Activity: 1.84%
[29]
  IC50: 990 nM

## O=C(NC1CCCNCC1)c1ccc2cc1OCCCCOc1cc(ccc1F)-c1nc(ncc1F)N2 (stereo unspecified)
[1]
  IC50: 3.1 nM
[2]
  IC50: 54.3 nM
[3]
  IC50: 403 nM
[4]
  IC50: 116 nM
[5]
  Activity: 21.1%

## CN1CCN(CCNC(=O)c2ccc3cc2OCCCCCCOc2cc(ccc2F)-c2nc(ncc2F)N3)CC1
[1]
  IC50: 2.3 nM
[2]
  IC50: 25.4 nM
[4]
  IC50: 143 nM
